Structures are written as SMILES. In brackets after ≈: the same amount, converted by molar mass.

This note sets out measurements from patent US8936667B2, “Aqueous leaching process for recovery of precious metals with addition of di-thiooxamide ligand” (Anglo Operations Limited, priority 2009, dated 2015).

One data set is described as follows: physchem. It is filed as physicochemical. Here is the method:
Prior to the leach, the ligand is dissolved in water which has been pre-adjusted to the leach pH. […] It was suspected that the ligand became doubly deprotonated at pH 13.5 and above.

A short description of data set [1]: Leaching of Witwatersrand gold ore, parameter studies (Example 2). Conditions: oxygen/permanganate, Eh above 60 mV; 25° C., 0.9 g/l DTO. An excerpt: A head sample was submitted with every batch of samples in order to minimise errors caused by discrepancies in analysis among batches. The metal extractions for a particular batch of samples were therefore calculated using the head sample analysis from the same batch.
Deionised water was used in all preparation, dissolution, leach and washing steps.
The leach procedure was as follows:
The required amounts of ligand and alkaline water were mixed in a jacketed leach reactor until the ligand was fully dissolved. The ore was then added to the solution (unless otherwise specified, initial solids concentration was 17% m/m) and the reactor lid was fitted on. A stirring impeller, pH and (Ag/AgCl) redox electrodes, titration dispensing tube, temperature probe and gas distribution tube (if oxygen was used) were fitted into ports in the lid. The ore was then leached for the required amount of time. A water bath was used to maintain the leach temperature for the duration of the leach. The leach pH was controlled with an autotitrator. If oxygen was the oxidant, a mass flow controller was used to control oxygen-flow into the solution. At the end of the leach period, the slurry was filtered and the residue was given at least two water washes using water of the same pH as the leach solution, followed by a final wash with deionised water. […]

Regarding `NC(=S)C(N)=S` [DTO, dithiooxamide], in the data set “physchem”, the Solubility in water result is “does not have good solubility in water”, the “Solubility of the ligand” value is listed as “extremely low” and the pKa came to 11. Also, in “physchem” (pH 12, aqueous buffer, thermodynamic from solid), the solubility is approximately 900 µg/mL (≈ 7.49 mM). Further, the “Dissolution of ligand in water pre-adjusted to leach pH” value in “physchem” (pH 13.5 to 14 compared with pH 11 to 13) was “dissolved far more readily”. Moreover, the “Leach time to maximum gold extraction” value in data set [1] was found to be 4 h.

For orientation: pKa means the negative logarithm of the acid dissociation constant. Read a low pKa as a stronger acid or weaker base. In general, solubility refers to the concentration that dissolves in the medium under given conditions.
